Source: patent US11198869B2, “Angelman syndrome antisense treatment” (The Texas A&M University System, priority 2017, dated 2021)

System: SNORD116
Experiment: SNORD116 steady state RNA (qRT-PCR) in GABAergic iPSC-derived neurons
Type: cell-based, human
Conditions: 10-point dose curve 1 nM-30 μM; 14 DIV to 20 DIV
Source text: The effects of ASO-4 and Topotecan were then examined on the SNORD116, IPW, SNORD115, and SNORD109A RNAs, which are located upstream of the ASO-4 target region (see FIG. 1A).
GABAergic and glutamatergic induced pluripotent stem cell (iPSC) derived neural precursor cells (NRC-100-010-001 and GNC-301-030-001, Cellular Dynamics International, Madison Wis.) were differentiated into neurons according to the manufactures protocol. Briefly, neural precursor cells were thawed and resuspended in chemically defined medium and added to sterile-culture plates coated with poly-D-lysine and laminin. The medium was replaced 24 hr after plating and then one-half of the medium was replaced every 3-5 days afterwards.
For cultured iPSC-derived neurons, RNA isolation and cDNA synthesis were performed using the Cell-to-CT kit (Thermo Fisher Scientific) in a lysate volume of 55 μl.
The steady state RNA levels of target transcripts were measured using TaqMan quantitative reverse-transcription PCR (qRT-PCR) assays. […] Cycling conditions were 2 minutes at 50° C., 10 minutes at 95° C., and 40 cycles of 15 seconds at 95° C. and 1 minute at 60° C., with readings taken at the 60° C. step of every cycle. […] Data was retrieved and analyzed with the BIORAD CFX Maestro software (Bio-Rad Laboratories). […]

CC[C@@]1(O)C(=O)OCc2c1cc1n(c2=O)Cc2cc3c(CN(C)C)c(O)ccc3nc2-1 [Topotecan, reference compound]
effect on SNORD116 RNA levels (in words): significant effect on SNORD116, IPW, SNORD115, and SNORD109A/B RNA levels that was dose dependent
